Test system: MV-4-11 cells
Test: Gene expression microarray analysis (Affymetrix PrimeView) and GSEA
Type: cell-based, human
Set-up: RFU PODN (11730768_x_at) / Fold change /veh PODN (11730768_x_at) / RFU LINC00158 (11744669_a_at) / Fold change /veh LINC00158 (11744669_a_at) / RFU DUSP10 (11751237_a_at) / Fold change /veh DUSP10 (11751237_a_at) / RFU ID3 (11757404_x_at) / Fold change /veh ID3 (11757404_x_at) / RFU PLEKHG5 (11737974_s_at) / Fold change /veh PLEKHG5 (11737974_s_at) / RFU LRRC4B (11730491_at) / Fold change /veh LRRC4B (11730491_at) / RFU GIMAP4 (11747438_a_at) / Fold change /veh GIMAP4 (11747438_a_at) / RFU KRT8 (11758183_x_at) / Fold change /veh KRT8 (11758183_x_at) / RFU CNN1 (11734310_a_at) / Fold change /veh CNN1 (11734310_a_at) / RFU VPS37D (11726825_at) / Fold change /veh VPS37D (11726825_at) / RFU C10orf10 (11716522_x_at) / Fold change /veh C10orf10 (11716522_x_at) / RFU KIR2DL2 /// KIR2DL4 /// KIR2DL5A /// KIR2DL5B /// KIR2DS1 /// KIR2DS2 /// KIR2DS3 /// KIR2DS4 /// KIR3DL3 /// KIR3DL3 /// KIR3DS1 (11738374_at) / Fold change /veh KIR2DL2 /// KIR2DL4 /// KIR2DL5A /// KIR2DL5B /// KIR2DS1 /// KIR2DS2 /// KIR2DS3 /// KIR2DS4 /// KIR3DL3 /// KIR3DL3 /// KIR3DS1 (11738374_at) / RFU C1QL1 (11718748_at) / Fold change /veh C1QL1 (11718748_at) / RFU TMPRSS4 (11747572_a_at) / Fold change /veh TMPRSS4 (11747572_a_at) / RFU HAMP (11756126_x_at) / Fold change /veh HAMP (11756126_x_at) / RFU RNFT2 (11725882_a_at) / Fold change /veh RNFT2 (11725882_a_at) / RFU NR4A2 (11747474_a_at) / Fold change /veh NR4A2 (11747474_a_at) / RFU ABCC12 (11746883_a_at) / Fold change /veh ABCC12 (11746883_a_at) / RFU TMEM136 (11760407_x_at) / Fold change /veh TMEM136 (11760407_x_at) / RFU CLDN22 /// WWC2 (11732394_at) / Fold change /veh CLDN22 /// WWC2 (11732394_at) / RFU HLA-DPB1 (11760878_x_at) / Fold change /veh HLA-DPB1 (11760878_x_at) / RFU SPINT1 (11716480_a_at) / Fold change /veh SPINT1 (11716480_a_at) / RFU GAP43 (11754022_s_at) / Fold change /veh GAP43 (11754022_s_at) / RFU A4GNT (11735810_at) / Fold change /veh A4GNT (11735810_at) / RFU PRB3 (11715151_x_at) / Fold change /veh PRB3 (11715151_x_at) / RFU TUBB4B (11761932_at) / Fold change /veh TUBB4B (11761932_at) / RFU CAPN14 (11732068_a_at) / Fold change /veh CAPN14 (11732068_a_at) / RFU TMCC2 (11721928_a_at) / Fold change /veh TMCC2 (11721928_a_at) / RFU IRGQ (11745062_a_at) / Fold change /veh IRGQ (11745062_a_at) / RFU FAM174B (11720279_a_at) / Fold change /veh FAM174B (11720279_a_at) / RFU TMPRSS4 (11748680_a_at) / Fold change /veh TMPRSS4 (11748680_a_at) / RFU FAM212B (11763350_a_at) / Fold change /veh FAM212B (11763350_a_at) / RFU PLEKHG5 (11743358_a_at) / Fold change /veh PLEKHG5 (11743358_a_at) / RFU ZSCAN30 (11745921_a_at) / Fold change /veh ZSCAN30 (11745921_a_at) / RFU CMKLR1 (11741424_a_at) / Fold change /veh CMKLR1 (11741424_a_at) / RFU LOC101060620 /// MAPK8IP1 (11723275_at) / Fold change /veh LOC101060620 /// MAPK8IP1 (11723275_at) / RFU SPTSSB (11747773_x_at) / Fold change /veh SPTSSB (11747773_x_at) / RFU PRSS12 (11739890_at) / Fold change /veh PRSS12 (11739890_at) / RFU BIN1 (11741810_x_at) / Fold change /veh BIN1 (11741810_x_at) / RFU WNT11 (11732464_a_at) / Fold change /veh WNT11 (11732464_a_at) / RFU C10orf10 (11716521_a_at) / Fold change /veh C10orf10 (11716521_a_at) / RFU C5orf56 (11738089_at) / Fold change /veh C5orf56 (11738089_at) / RFU CYB561 (11721691_x_at) / Fold change /veh CYB561 (11721691_x_at) / RFU ANKRD19P (11752326_a_at) / Fold change /veh ANKRD19P (11752326_a_at) / RFU OR2T12 /// OR2T33 /// OR2T8 (11738714_s_at) / Fold change /veh OR2T12 /// OR2T33 /// OR2T8 (11738714_s_at) / RFU VCAN (11748164_a_at) / Fold change /veh VCAN (11748164_a_at) / RFU JSRP1 (11732532_at) / Fold change /veh JSRP1 (11732532_at) / RFU KRTAP10-11 (11738290_x_at) / Fold change /veh KRTAP10-11 (11738290_x_at) / RFU MYO3A (11730013_a_at) / Fold change /veh MYO3A (11730013_a_at) / RFU EBF3 (11725865_a_at) / Fold change /veh EBF3 (11725865_a_at) / RFU CAMK2N1 (11719241_x_at) / Fold change /veh CAMK2N1 (11719241_x_at) / RFU C5orf56 (11738088_a_at) / Fold change /veh C5orf56 (11738088_a_at) / RFU OLFML3 (11715873_a_at) / Fold change /veh OLFML3 (11715873_a_at) / RFU LOC100653217 /// NTM (11731650_a_at) / Fold change /veh LOC100653217 /// NTM (11731650_a_at) / RFU MAPK11 (11762145_a_at) / Fold change /veh MAPK11 (11762145_a_at) / RFU FIZ1 (11724087_x_at) / Fold change /veh FIZ1 (11724087_x_at) / RFU OASL (11726364_x_at) / Fold change /veh OASL (11726364_x_at) / RFU SOX15 (11748057_x_at) / Fold change /veh SOX15 (11748057_x_at) / RFU CD79A (11719716_a_at) / Fold change /veh CD79A (11719716_a_at) / RFU HIST1H1D (11736915_at) / Fold change /veh HIST1H1D (11736915_at) / RFU CASKIN2 (11723855_a_at) / Fold change /veh CASKIN2 (11723855_a_at) / RFU LOC730098 (11760151_x_at) / Fold change /veh LOC730098 (11760151_x_at) / RFU OR4N2 (11742367_at) / Fold change /veh OR4N2 (11742367_at) / RFU PRRT2 (11749266_a_at) / Fold change /veh PRRT2 (11749266_a_at) / RFU SNX32 (11753110_a_at) / Fold change /veh SNX32 (11753110_a_at) / RFU CDHR5 (11726645_a_at) / Fold change /veh CDHR5 (11726645_a_at) / RFU RCAN1 (11760418_a_at) / Fold change /veh RCAN1 (11760418_a_at) / RFU FAM167A (11723789_a_at) / Fold change /veh FAM167A (11723789_a_at) / RFU FAM26E (11764081_at) / Fold change /veh FAM26E (11764081_at) / RFU ISYNA1 (11749810_s_at) / Fold change /veh ISYNA1 (11749810_s_at) / RFU ACY1 (11761880_at) / Fold change /veh ACY1 (11761880_at) / RFU 11764098_at / Fold change /veh 11764098_at / RFU SAMD14 (11745864_x_at) / Fold change /veh SAMD14 (11745864_x_at) / RFU NPB (11741838_a_at) / Fold change /veh NPB (11741838_a_at) / RFU TMPRSS6 (11731388_a_at) / Fold change /veh TMPRSS6 (11731388_a_at) / RFU KRTAP10-2 (11738614_at) / Fold change /veh KRTAP10-2 (11738614_at) / RFU ARHGAP8 /// PRR5-ARHGAP8 (11727945_x_at) / Fold change /veh ARHGAP8 /// PRR5-ARHGAP8 (11727945_x_at) / RFU KRTAP5-7 /// NADSYN1 (11734609_at) / Fold change /veh KRTAP5-7 /// NADSYN1 (11734609_at) / RFU RASL12 (11751679_a_at) / Fold change /veh RASL12 (11751679_a_at) / RFU CDKN2B (11736163_a_at) / Fold change /veh CDKN2B (11736163_a_at) / RFU PRF1 (11729649_at) / Fold change /veh PRF1 (11729649_at) / RFU, ZNF638 /// ZNF638-IT1 / Fold change vs veh, ZNF638 /// ZNF638-IT1 / RFU, PANK3 / Fold change vs veh, PANK3 / RFU, SH3YL1 / Fold change vs veh, SH3YL1 / RFU, ZEB2 / Fold change vs veh, ZEB2 / RFU, NRIP1 / Fold change vs veh, NRIP1 / RFU, PTTG1IP / Fold change vs veh, PTTG1IP / RFU, CAPN2 / Fold change vs veh, CAPN2 / RFU, MED14 / Fold change vs veh, MED14 / RFU, SNORA58 / Fold change vs veh, SNORA58 / RFU, C1orf63 / Fold change vs veh, C1orf63 / RFU, LRRFIP1 / Fold change vs veh, LRRFIP1 / RFU, NDUFAF7 / Fold change vs veh, NDUFAF7 / RFU, SLC12A2 / Fold change vs veh, SLC12A2 / RFU, IBTK / Fold change vs veh, IBTK / RFU, ESF1 / Fold change vs veh, ESF1 / Fold change vs veh, TMEM50B / RFU, TAOK1 / Fold change vs veh, TAOK1 / RFU, ACBD3 / Fold change vs veh, ACBD3 / RFU, TMA16 / Fold change vs veh, TMA16 / RFU, RWDD3 / Fold change vs veh, RWDD3 / RFU, BCAT1 / Fold change vs veh, BCAT1 / RFU, EDEM3 / Fold change vs veh, EDEM3 / RFU, TMEM33 / Fold change vs veh, TMEM33 / RFU, WDR75 / Fold change vs veh, WDR75 / RFU, AHCTF1 / Fold change vs veh, AHCTF1 / RFU, TFRC / Fold change vs veh, TFRC / RFU, ZDHHC17 / Fold change vs veh, ZDHHC17 / RFU, NOM1 / Fold change vs veh, NOM1 / RFU, ARL8B / Fold change vs veh, ARL8B / RFU, ZBTB11 / Fold change vs veh, ZBTB11 / RFU, TAMM41 / Fold change vs veh, TAMM41 / RFU, KIAA1704 /// LOC100996395 / Fold change vs veh, KIAA1704 /// LOC100996395 / RFU, ING1 / Fold change vs veh, ING1 / RFU, TRMT61B / Fold change vs veh, TRMT61B / RFU, FUBP3 / Fold change vs veh, FUBP3 / RFU, TP53 / Fold change vs veh, TP53 / RFU, TNKS2 / Fold change vs veh, TNKS2 / RFU, ZFP14 / Fold change vs veh, ZFP14 / RFU, ACTR2 / Fold change vs veh, ACTR2 / RFU, PPP3R1 / Fold change vs veh, PPP3R1 / RFU, PIK3R1 / Fold change vs veh, PIK3R1 / RFU, HNRNPA1 / Fold change vs veh, HNRNPA1 / RFU, RNF170 / Fold change vs veh, RNF170 / RFU, ZNF28 / Fold change vs veh, ZNF28 / RFU, RNGTT / Fold change vs veh, RNGTT / RFU, OGT / Fold change vs veh, OGT / RFU, BRD1 / Fold change vs veh, BRD1 / RFU, MARS / Fold change vs veh, MARS / RFU, ZNF655 / Fold change vs veh, ZNF655 / RFU, FAHD1 / Fold change vs veh, FAHD1 / RFU, BDP1 / Fold change vs veh, BDP1 / RFU, LRRCC1 / Fold change vs veh, LRRCC1 / RFU, ARID1A / Fold change vs veh, ARID1A / RFU, ZNF146 / Fold change vs veh, ZNF146 / RFU, ZNF330 / Fold change vs veh, ZNF330 / RFU, GPN3 / Fold change vs veh, GPN3 / RFU, C9orf123 / Fold change vs veh, C9orf123 / RFU, N4BP2L2 / Fold change vs veh, N4BP2L2 / RFU, ARFIP1 / Fold change vs veh, ARFIP1 / RFU, FAM179B / Fold change vs veh, FAM179B / RFU, BCL10 / Fold change vs veh, BCL10 / RFU, UHRF1BP1L / Fold change vs veh, UHRF1BP1L / RFU, BET1 / Fold change vs veh, BET1 / RFU, CNOT2 / Fold change vs veh, CNOT2 / RFU, ZNF268 / Fold change vs veh, ZNF268 / Fold change vs veh, ZNF507 / RFU, DGCR2 / Fold change vs veh, DGCR2 / RFU, WDSUB1 / Fold change vs veh, WDSUB1 / Fold change vs veh, HSP90B1 /// MIR3652 / RFU, ADSS / Fold change vs veh, ADSS / RFU, GK / Fold change vs veh, GK / RFU, ZNF148 / Fold change vs veh, ZNF148 / RFU, TAF9 / Fold change vs veh, TAF9 / RFU, SLC1A5 / Fold change vs veh, SLC1A5 / RFU, SLMO2 / Fold change vs veh, SLMO2 / RFU, ABCC4 / Fold change vs veh, ABCC4 / RFU, LOC101060439 /// RAP1B / Fold change vs veh, LOC101060439 /// RAP1B / RFU, RFX7 / Fold change vs veh, RFX7 / RFU, GTPBP10 / Fold change vs veh, GTPBP10 / RFU, CNEP1R1 / Fold change vs veh, CNEP1R1 / RFU, BIVM-ERCC5 /// ERCC5 / Fold change vs veh, BIVM-ERCC5 /// ERCC5 / RFU, ILF3 / Fold change vs veh, ILF3 / RFU 11762660_at / Fold change /veh 11762660_at / RFU VCAN (11757783_s_at) / Fold change /veh VCAN (11757783_s_at) / RFU DDX43 (11728927_at) / Fold change /veh DDX43 (11728927_at) / RFU KRT8 (11758188_x_at) / Fold change /veh KRT8 (11758188_x_at) / RFU NKD1 (11759106_at) / Fold change /veh NKD1 (11759106_at) / RFU SRD5A1 (11742802_a_at) / Fold change /veh SRD5A1 (11742802_a_at) / RFU TPSAB1 /// TPSB2 (11721975_s_at) / Fold change /veh TPSAB1 /// TPSB2 (11721975_s_at) / RFU GSTM3 (11746129_a_at) / Fold change /veh GSTM3 (11746129_a_at) / RFU IL23R (11737362_x_at) / Fold change /veh IL23R (11737362_x_at) / RFU TMEM51 (11727254_a_at) / Fold change /veh TMEM51 (11727254_a_at) / RFU PIWIL2 (11732686_x_at) / Fold change /veh PIWIL2 (11732686_x_at) / RFU ORM1 (11744905_x_at) / Fold change /veh ORM1 (11744905_x_at) / RFU CCDC152 (11743942_at) / Fold change /veh CCDC152 (11743942_at) / RFU ECM1 (11717891_a_at) / Fold change /veh ECM1 (11717891_a_at) / RFU IL23R (11748794_a_at) / Fold change /veh IL23R (11748794_a_at) / RFU TNFAIP8L3 (11732012_x_at) / Fold change /veh TNFAIP8L3 (11732012_x_at) / RFU MBOAT4 (11741988_at) / Fold change /veh MBOAT4 (11741988_at) / RFU 11764193_at / Fold change /veh 11764193_at / RFU TMEM53 (11763286_at) / Fold change /veh TMEM53 (11763286_at) / RFU MAGEB2 (11727129_at) / Fold change /veh MAGEB2 (11727129_at) / RFU TMEM200A (11744735_a_at) / Fold change /veh TMEM200A (11744735_a_at) / RFU CCDC152 (11751479_a_at) / Fold change /veh CCDC152 (11751479_a_at) / RFU FAM211A (11726209_a_at) / Fold change /veh FAM211A (11726209_a_at) / RFU RGS16 (11746705_a_at) / Fold change /veh RGS16 (11746705_a_at) / RFU VCAN (11755009_s_at) / Fold change /veh VCAN (11755009_s_at) / RFU RHOB (11743442_s_at) / Fold change /veh RHOB (11743442_s_at) / RFU RGS16 (11720943_a_at) / Fold change /veh RGS16 (11720943_a_at) / RFU RGS16 (11720944_at) / Fold change /veh RGS16 (11720944_at) / RFU, VPS4B / Fold change vs veh, VPS4B / RFU, CREB1 / Fold change vs veh, CREB1 / RFU, DNAJC13 / Fold change vs veh, DNAJC13 / RFU, GNAQ / Fold change vs veh, GNAQ / RFU, CDK5R1 / Fold change vs veh, CDK5R1 / RFU, ZRANB3 / Fold change vs veh, ZRANB3 / RFU, CUL4A / Fold change vs veh, CUL4A / RFU, CCNY / Fold change vs veh, CCNY / RFU, UFL1 / Fold change vs veh, UFL1 / RFU, COG3 / Fold change vs veh, COG3 / RFU, DIAPH2 / Fold change vs veh, DIAPH2 / RFU, SKA2 / Fold change vs veh, SKA2 / RFU, AFF3 / Fold change vs veh, AFF3 / RFU, LMF1 / Fold change vs veh, LMF1 / RFU, IPO11 / Fold change vs veh, IPO11 / RFU, DFFB / Fold change vs veh, DFFB / RFU, FOXP1 / Fold change vs veh, FOXP1 / RFU, CARD8 / Fold change vs veh, CARD8 / RFU, STRN3 / Fold change vs veh, STRN3 / RFU, ADK / Fold change vs veh, ADK / RFU, RASSF2 / Fold change vs veh, RASSF2 / RFU, WIPF1 / Fold change vs veh, WIPF1 / RFU, LARP1B / Fold change vs veh, LARP1B / RFU, RASA1 / Fold change vs veh, RASA1 / RFU, RB1 / Fold change vs veh, RB1 / RFU, PPFIA1 / Fold change vs veh, PPFIA1 / RFU, MAT2A / Fold change vs veh, MAT2A / RFU, CCT5 / Fold change vs veh, CCT5 / RFU, WDR92 / Fold change vs veh, WDR92 / RFU, CUX1 / Fold change vs veh, CUX1 / RFU, TTC7A / Fold change vs veh, TTC7A / RFU, TMEM135 / Fold change vs veh, TMEM135 / RFU, DEPTOR / Fold change vs veh, DEPTOR / RFU, CPM / Fold change vs veh, CPM / RFU, DNAJB6 / Fold change vs veh, DNAJB6 / RFU, CACNA2D3 / Fold change vs veh, CACNA2D3 / RFU, DTX4 / Fold change vs veh, DTX4 / RFU, TFCP2 / Fold change vs veh, TFCP2 / RFU, GMCL1 /// GMCL1P1 / Fold change vs veh, GMCL1 /// GMCL1P1 / RFU, AEBP2 / Fold change vs veh, AEBP2 / RFU, SNHG1 /// SNORD22 /// SNORD25 /// SNORD26 /// SNORD27 /// SNORD28 /// SNORD29 /// SNORD31 / Fold change vs veh, SNHG1 /// SNORD22 /// SNORD25 /// SNORD26 /// SNORD27 /// SNORD28 /// SNORD29 /// SNORD31 / Fold change (Aza/veh), C12orf56 (ProbeSet 11735607_a_at) / Fold change (ACY-1035/veh), C12orf56 (ProbeSet 11735607_a_at) / Fold change (Aza/veh), FGFR1OP (ProbeSet 11751329_s_at) / Fold change (ACY-1035/veh), FGFR1OP (ProbeSet 11751329_s_at) / Fold change (Aza/veh), VPS36 (ProbeSet 11739960_a_at) / Fold change (ACY-1035/veh), VPS36 (ProbeSet 11739960_a_at) / RFU SYPL1 (11715823_x_at) / Fold change /veh SYPL1 (11715823_x_at) / RFU IGFBP7 (11715501_s_at) / Fold change /veh IGFBP7 (11715501_s_at) / RFU REEP3 (11722064_at) / Fold change /veh REEP3 (11722064_at) / RFU IGLL1 (11728026_x_at) / Fold change /veh IGLL1 (11728026_x_at): dose or concentration left out as unconfirmed
Settings: MV-4-11 cells, 48 hours

For `Nc1ccc(-c2cccs2)cc1NC(=O)c1ccc2c(c1)cc(C1CC1)n2CCN1CCOCC1` [ACY-1035], the “Fold change /veh RCAN1 (11760418_a_at)” value was 1.01.
